Experimental data: US20140303092A1 (CHIMERIX, INC., priority 2011, published 2014)

Assay: Study HDP-CDV-201: safety and tolerability (adverse events, laboratory abnormalities, discontinuations)
Type: in vivo, human (adult allogeneic HSCT recipients)
Settings: for ALT, subject 4090 / AST, subject 4090 / Alk Phos, subject 4090 / Bilirubin, subject 4090: 100 BIW
Description: Clinical Studies of HDP-CDV were performed and described in detail in the following Examples. For example, HDP-CDV-201 is a placebo-controlled, dose-escalating trial in HSCT CMV (R+) recipients, evaluating the ability of HDP-CDV to prevent or control CMV infection was carried out. Five cohorts were established in which participants or subjects received either placebo or the HDP-CDV orally, in doses ranging from 40 mg weekly (QW) to 200 mg twice weekly (BIW). Subjects who were post-HSCT were enrolled at the time of engraftment and randomized to HDP-CDV or placebo (3 to 1 ratio) and received blinded therapy until approximately 100 day post-transplantation. HDP-CDV doses were 40 mg QW, 100 mg QW, 200 mg QW, 200 mg BIW and 100 mg BIW. Escalation to the next dose was decided by the data monitoring committee after review of the safety data from the previous Cohort. Subjects who developed CMV disease or CMV infection requiring pre-emptive therapy with local standard of care were discontinued from blinded therapy and followed for 4 weeks. Subjects who completed treatment with blinded therapy were followed for 8 weeks post-therapy.
Data from Study HDP-CDV-201 also provided characterization of the safety and tolerability profile of HDP-CDV when administered for the prevention or control of CMV infection in high risk (R^+) post-HSCT adult subjects.
The Safety population (SAFETY) included all randomized subjects who took at least one dose of study treatment. This population was used to summarize safety outcomes based on the treatment actually received, in cases where a subject was treated contrary to the randomization schedule.
The safety and tolerability profile of HDP-CDV, including subject demographics and Baseline characteristics; the AE profile; and laboratory abnormalities of interest were analyzed in the cohorts followed in this investigation.
Subjects completing the treatment period received a full course of study medication; those completing the entire study attended visits through 8 weeks of follow up. Subjects who discontinued treatment may have done so for protocol specified reasons (e.g. development of clinically significant CMV infection requiring preemptive treatment with excluded anti-CMV medications) or for other reasons (e.g., withdrawal, adverse events, loss to follow-up). The disposition of subjects in Study HDP-CDV-201 during the double-blind, placebo-controlled treatment period (through Week 11) is listed by dosing Cohort in TABLE 23.
Adverse events were examined by severity to ensure that all safety signals were identified in this study population. Because of the frequency of events in HSCT recipients, particular attention was given to evaluation of Grade 3 […], 4 (severe), and 5 (fatal) adverse events.
Only those preferred terms for which at least one Grade 3 or higher event was experienced in any treatment group are listed. Cytomegalovirus-related AEs are excluded from this analysis.
HDP-CDV is a lipid conjugate of CDV. Because CDV is known to have adverse effects on renal function and bone marrow, decreased GFR and persistent neutropenia were identified as AEs of special interest. Key renal and hematological (TABLE 30) laboratory parameters were measured and listed below by Study HDP-CDV-201 treatment groups. TABLE 30 includes abnormal levels of serum creatinine, neutrophils, platelets, WBCs, and hemoglobin and includes data at Screening and during the treatment period.
A common metric for unit based dosing of medications is by weight (mg/kg). When the distribution of weights was examined for all subjects participating in the study, the median was 78 kg and the lower 25th percentile weight was approximately 65 kg, which translates to a cut-off of ˜3 mg/kg for a 200 mg total weekly dose. Based upon this approach, a cut-off of 3 mg/kg was used to assess the frequency of diarrhea and associated GI AEs reported for the subjects in Cohorts 3 or 4a (TABLE 40).

## CCCCCCCCCCCCCCCCOCCCOP(=O)(O)COC(CO)Cn1ccc(N)nc1=O (stereo not drawn) [HDP-CDV]
200 mg QW
  TEAE LFT Abnormal, Grade 4: 0
  TEAE LFT Abnormal, Grade 5: 0
  TEAE Leukocytosis, Frequency: 2 (5.1%)
  TEAE Leukocytosis, Grade 2: 0
  TEAE Leukocytosis, Grade 3: 0
  TEAE Leukocytosis, Grade 4: 0
  TEAE Leukocytosis, Grade 5: 0
  TEAE Nausea, Frequency: 11 (28.2%)
  TEAE Nausea, Grade 2: 4 (10.3%)
  TEAE Nausea, Grade 3: 1 (2.6%)
  TEAE Nausea, Grade 4: 0
  TEAE Nausea, Grade 5: 0
  TEAE Neutropenia, Frequency: 4 (10.3%)
  TEAE Neutropenia, Grade 2: 1 (2.6%)
  TEAE Neutropenia, Grade 3: 3 (7.7%)
  TEAE Neutropenia, Grade 4: 0
  TEAE Neutropenia, Grade 5: 0
  TEAE Pneumonia, Frequency: 0
  TEAE Pneumonia, Grade 2: 0
  TEAE Pneumonia, Grade 3: 0
  TEAE Pneumonia, Grade 4: 0
  TEAE Pneumonia, Grade 5: 0
  TEAE Pyrexia, Frequency: 7 (17.9%)
  TEAE Pyrexia, Grade 2: 2 (5.1%)
  TEAE Pyrexia, Grade 3: 2 (5.1%)
  TEAE Pyrexia, Grade 4: 0
  TEAE Pyrexia, Grade 5: 0
  TEAE Renal Failure, Frequency: 0
  TEAE Renal Failure, Grade 2: 0
  TEAE Renal Failure, Grade 3: 0
  TEAE Renal Failure, Grade 4: 0
  TEAE Renal Failure, Grade 5: 0
  TEAE Staphylococcal Bacteremia, Frequency: 1 (2.6%)
  TEAE Staphylococcal Bacteremia, Grade 2: 0
  TEAE Staphylococcal Bacteremia, Grade 3: 1 (2.6%)
  TEAE Staphylococcal Bacteremia, Grade 4: 0
  TEAE Staphylococcal Bacteremia, Grade 5: 0
  TEAE Thrombocytopenia, Frequency: 0
  TEAE Thrombocytopenia, Grade 2: 0
  TEAE Thrombocytopenia, Grade 3: 0
  TEAE Thrombocytopenia, Grade 4: 0
  TEAE Thrombocytopenia, Grade 5: 0
  TEAE Vomiting, Frequency: 6 (15.4%)
  TEAE Vomiting, Grade 2: 1 (2.6%)
  TEAE Vomiting, Grade 3: 1 (2.6%)
  TEAE Vomiting, Grade 4: 0
  TEAE Vomiting, Grade 5: 0
  subjects requiring treatment with steroids during the study: 59%
200 mg QW (6 of 39)
  proportion of subjects with Grade 3 or higher ALT: 15.8%
200 mg QW, fasted state
  subjects who discontinued study medications: 54%
200 mg QW, n = 39
  Subjects Reporting Diarrhea as an AE: 13 (33.3%)
200 mg QW, active treatment period
  Discontinuation: Death: 3 (7.7%) Subject n (%)
200 mg QW, active treatment period through Week 11
  Discontinuation: Adverse event: 7 (17.9%) Subject n (%)
400 mg per week, given as 200 mg BIW
  subjects reporting SAEs involving the gastrointestinal tract: 63%
Treatment Wk 8
  ALT, subject 4090: 445 U/L
  AST, subject 4090: 195 U/L
  Alk Phos, subject 4090: Normal
  Bilirubin, subject 4090: 44 µmol/L
Treatment Wk 10
  ALT, subject 4090: 792 U/L
  AST, subject 4090: 312 U/L
  Alk Phos, subject 4090: Normal
  Bilirubin, subject 4090: Normal
200 BIW, Posttreatment Wk 1
  ALT, subject 4008: 137 U/L
  AST, subject 4008: Normal
  Bilirubin, subject 4008: 48 µmol/L
200 BIW, Posttreatment Wk 1, Previously elevated
  Alk Phos, subject 4008: 117 U/L
200 QW, Post Treatment Wk 1
  ALT, subject 3001: 375 U/L
  AST, subject 3001: 164 U/L
  Bilirubin, subject 3001: 89 µmol/L
200 QW, Post Treatment Wk 1, elevated
  Alk Phos, subject 3001: 337 U/L
200 QW, Post Treatment Wk 4
  ALT, subject 3044: 227 U/L
  AST, subject 3044: Normal
  Bilirubin, subject 3044: 50 µmol/L
200 QW, Post Treatment Wk 4, Previously elevated
  Alk Phos, subject 3044: 174 U/L
Cohort 1
  Grade of hepatobiliary AE symptomatic gallstones, subject 1016: 3
  Grade of hepatobiliary AE worsening hyperbilirubinemia, subject 1003: 4
  Outcome of hepatobiliary AE symptomatic gallstones, subject 1016: recovered/resolved
  Outcome of hepatobiliary AE worsening hyperbilirubinemia, subject 1003: not recovered/not
  Relationship of hepatobiliary AE symptomatic gallstones, subject 1016: not related
  Relationship of hepatobiliary AE worsening hyperbilirubinemia, subject 1003: not related
  subjects discontinued due to neutropenia: 0 subject(s)
Cohort 1, 40 mg QW
  ALT (Screening) >3 × ULN-5 × ULN, subjects: 0
  ALT (Screening) >5 × ULN-10 × ULN, subjects: 0
  ALT (Screening) >10 × ULN-20 × ULN, subjects: 0
  ALT (Screening) >20 × ULN, subjects: 0
  ALT (any time during therapy) >3 × ULN-5 × ULN, subjects: 2 (8.7%)
  ALT (any time during therapy) >5 × ULN-10 × ULN, subjects: 1 (4.3%)
  ALT (any time during therapy) >10 × ULN-20 × ULN, subjects: 0
  ALT (any time during therapy) >20 × ULN, subjects: 0
  AST (Screening) >3 × ULN-5 × ULN, subjects: 0
  AST (Screening) >5 × ULN-10 × ULN, subjects: 0
  AST (Screening) >10 × ULN-20 × ULN, subjects: 0
  AST (Screening) >20 × ULN, subjects: 0
  AST (any time during therapy) >3 × ULN-5 × ULN, subjects: 1 (4.3%)
  AST (any time during therapy) >5 × ULN-10 × ULN, subjects: 0
  AST (any time during therapy) >10 × ULN-20 × ULN, subjects: 0
  AST (any time during therapy) >20 × ULN, subjects: 0
  Alkaline Phosphatase (Screening) >2.5-5.0 × ULN, subjects: 0
  Alkaline Phosphatase (Screening) >5.0-20.0 × ULN, subjects: 0
  Alkaline Phosphatase (Screening) >20.0 × ULN, subjects: 0
  Alkaline Phosphatase (Screening) >ULN-[…] ULN, subjects: 6 (24.0%)
  Alkaline Phosphatase (any time during therapy) >2.5-5.0 × ULN, subjects: 0
  Alkaline Phosphatase (any time during therapy) >5.0-20.0 × ULN, subjects: 0
  Alkaline Phosphatase (any time during therapy) >20.0 × ULN, subjects: 0
  Alkaline Phosphatase (any time during therapy) >ULN-[…] ULN, subjects: 6 (26.1%)
  GI AE Leading to Study Drug Discontinuation: Abdominal pain, subjects: 0
  GI AE Leading to Study Drug Discontinuation: Diarrhoea, subjects: 0
  GI AE Leading to Study Drug Discontinuation: Dyspepsia, subjects: 0
  GI AE Leading to Study Drug Discontinuation: Nausea, subjects: 0
  GI AE Leading to Study Drug Discontinuation: Vomiting, subjects: 0
  GI AEs Leading to Study Drug Discontinuation: Total subjects discontinued: 0
